# Reference: patent US6825172B2, “3-descladinosyl-6-O-carbamoyl and 6-O-carbonoyl macrolide antibacterial agents” (Janssen Pharmaceutica, NV, priority 2002, dated 2004)
# Read-outs that look alike come from different tables or passages of the source.
# How the values were obtained:
# Experiment in all cases: MIC, microdilution broth method (NCCLS)
# Type in all cases: cell-based
# S. pneumoniae ATCC49619 = settings: Streptococcus pneumoniae, read-out: MIC Values, D: S. pneumoniae ATCC49619
# Outline: (§1)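 NCCLS M7-A4 broth microdilution: two-fold drug dilutions in cation-adjusted Mueller-Hinton broth, inoculum approximately 5×10^4 CFU/well. Trays incubated at 35 °C for 16-20 hours. MIC read by comparing growth to compound-free growth controls.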
# E. coli OC2605 = settings: Escherichia coli
# Outline: as §1
# S. aureus ATCC29213 = settings: Staphylococcus aureus, read-out: MIC Values, B: S. aureus ATCC29213
# Outline: as §1
# H. influenzae ATCC49247 = settings: Haemophilus influenzae, read-out: MIC Values, E: H. influenzae ATCC49247
# Outline: as §1
# E. faecalis ATCC29212 = settings: Enterococcus faecalis, read-out: MIC Values, C: E. faecalis ATCC29212
# Outline: as §1
# [1] = Table 2, 3,6-Dicarbamoyl Macrolide Derivatives
# [2] = Table 2, 3,6-Dicarbamoyl Macrolide Derivatives, read-out: MIC Values, A: E. coil OC2605
# [3] = Table 1, 6-Carbamoyl-3-Acyl Macrolide Derivatives
# [4] = Table 1, 6-Carbamoyl-3-Acyl Macrolide Derivatives, read-out: MIC Values, A: E. coli OC2605
structure (smiles),measurement,setting,value
CC[C@H]1OC(=O)[C@H](C)[C@@H](OC(=O)N(C)C(C)C)[C@H](C)[C@@H](O[C@@H]2O[C@H](C)C[C@H](N(C)C)[C@H]2O)[C@](C)(OC(=O)NC/C=C/c2ccc(-c3ncccn3)cc2)C[C@@H](C)C(=O)[C@H](C)[C@H]2NC(=O)O[C@@]21C [Compound 57],MIC,S. pneumoniae ATCC49619; [1],0.06 µg/mL
same,MIC,E. coli OC2605; [2],16 µg/mL
same,MIC,S. aureus ATCC29213; [1],0.5 µg/mL
same,MIC,H. influenzae ATCC49247; [1],4 µg/mL
same,MIC,E. faecalis ATCC29212; [1],0.5 µg/mL
CC[C@H]1OC(=O)[C@H](C)[C@@H](OC(=O)Cc2cccnc2)[C@H](C)[C@@H](O[C@@H]2O[C@H](C)C[C@H](N(C)C)[C@H]2O)[C@](C)(OC(=O)NC/C=C/c2ccc(C(F)(F)F)nc2)C[C@@H](C)C(=O)[C@H](C)[C@H]2NC(=O)O[C@@]21C [Compound 36],MIC,S. pneumoniae ATCC49619; [3],0.06 µg/mL
same,MIC,E. coli OC2605; [4],16 µg/mL
same,MIC,S. aureus ATCC29213; [3],1 µg/mL
same,MIC,H. influenzae ATCC49247; [3],4 µg/mL
same,MIC,E. faecalis ATCC29212; [3],0.25 µg/mL
CC[C@H]1OC(=O)[C@H](C)[C@@H](OC(=O)c2cnccn2)[C@H](C)[C@@H](O[C@@H]2O[C@H](C)C[C@H](N(C)C)[C@H]2O)[C@](C)(OC(=O)NC/C=C/c2ccc(-c3ncccn3)cc2)C[C@@H](C)C(=O)[C@H](C)[C@H]2NC(=O)O[C@@]21C [Compound 5],MIC,S. pneumoniae ATCC49619; [3],0.06 µg/mL
same,MIC,E. coli OC2605; [4],> 16 µg/mL
same,MIC,S. aureus ATCC29213; [3],0.5 µg/mL
same,MIC,H. influenzae ATCC49247; [3],8 µg/mL
same,MIC,E. faecalis ATCC29212; [3],0.5 µg/mL
CC[C@H]1OC(=O)[C@H](C)[C@@H](OC(=O)N(CC)CC)[C@H](C)[C@@H](O[C@@H]2O[C@H](C)C[C@H](N(C)C)[C@H]2O)[C@](C)(OC(=O)NC/C=C/c2cnc3ccccc3c2)C[C@@H](C)C(=O)[C@H](C)[C@H]2NC(=O)O[C@@]21C [Compound 59],MIC,S. pneumoniae ATCC49619; [1],0.06 µg/mL
same,MIC,E. coli OC2605; [2],16 µg/mL
same,MIC,S. aureus ATCC29213; [1],0.5 µg/mL
same,MIC,H. influenzae ATCC49247; [1],4 µg/mL
same,MIC,E. faecalis ATCC29212; [1],0.25 µg/mL
CC[C@H]1OC(=O)[C@H](C)[C@@H](OC(=O)C(C)C)[C@H](C)[C@@H](O[C@@H]2O[C@H](C)C[C@H](N(C)C)[C@H]2O)[C@](C)(OC(=O)NC/C=C/C=C/c2cccnc2)C[C@@H](C)C(=O)[C@H](C)[C@H]2NC(=O)O[C@@]21C [Compound 24],MIC,S. pneumoniae ATCC49619; [3],< 0.015 µg/mL
same,MIC,E. coli OC2605; [4],> 16 µg/mL
same,MIC,S. aureus ATCC29213; [3],0.5 µg/mL
same,MIC,H. influenzae ATCC49247; [3],2 µg/mL
same,MIC,E. faecalis ATCC29212; [3],0.25 µg/mL
CC[C@H]1OC(=O)[C@H](C)[C@@H](OC(=O)N(CC)Cc2cccnc2)[C@H](C)[C@@H](O[C@@H]2O[C@H](C)C[C@H](N(C)C)[C@H]2O)[C@](C)(OC(=O)NC/C=C/c2ccc(-c3ncccn3)cc2)C[C@@H](C)C(=O)[C@H](C)[C@H]2NC(=O)O[C@@]21C [Compound 61],MIC,S. pneumoniae ATCC49619; [1],0.06 µg/mL
same,MIC,E. coli OC2605; [2],> 16 µg/mL
same,MIC,S. aureus ATCC29213; [1],1 µg/mL
same,MIC,H. influenzae ATCC49247; [1],8 µg/mL
same,MIC,E. faecalis ATCC29212; [1],0.5 µg/mL
CC[C@H]1OC(=O)[C@H](C)[C@@H](OC(=O)Cc2cccnc2)[C@H](C)[C@@H](O[C@@H]2O[C@H](C)C[C@H](N(C)C)[C@H]2OC(C)=O)[C@](C)(OC(=O)NCc2cnc3ccccc3c2)C[C@@H](C)C(=O)[C@H](C)[C@H]2NC(=O)O[C@@]21C [Compound 22],MIC,S. pneumoniae ATCC49619; [3],0.03 µg/mL
same,MIC,E. coli OC2605; [4],16 µg/mL
same,MIC,S. aureus ATCC29213; [3],0.5 µg/mL
same,MIC,H. influenzae ATCC49247; [3],2 µg/mL
same,MIC,E. faecalis ATCC29212; [3],0.25 µg/mL
CC[C@H]1OC(=O)[C@H](C)[C@@H](OC(C)=O)[C@H](C)[C@@H](O[C@@H]2O[C@H](C)C[C@H](N(C)C)[C@H]2O)[C@](C)(OC(=O)NC/C=C/c2ccc(-c3ncccn3)cc2)C[C@@H](C)C(=O)[C@H](C)[C@H]2NC(=O)O[C@@]21C [Compound 12],MIC,S. pneumoniae ATCC49619; [3],0.06 µg/mL
same,MIC,E. coli OC2605; [4],> 16 µg/mL
same,MIC,S. aureus ATCC29213; [3],1 µg/mL
same,MIC,H. influenzae ATCC49247; [3],8 µg/mL
same,MIC,E. faecalis ATCC29212; [3],0.25 µg/mL
CC[C@H]1OC(=O)[C@H](C)[C@@H](OC(=O)Nc2ccc(Cl)c(Cl)c2)[C@H](C)[C@@H](O[C@@H]2O[C@H](C)C[C@H](N(C)C)[C@H]2O)[C@](C)(OC(=O)NC/C=C/c2ccc(-c3ncccn3)cc2)C[C@@H](C)C(=O)[C@H](C)[C@H]2NC(=O)O[C@@]21C [Compound 54],MIC,S. pneumoniae ATCC49619; [1],0.5 µg/mL
same,MIC,E. coli OC2605; [2],> 16 µg/mL
same,MIC,S. aureus ATCC29213; [1],2 µg/mL
same,MIC,H. influenzae ATCC49247; [1],16 µg/mL
same,MIC,E. faecalis ATCC29212; [1],2 µg/mL
CC[C@H]1OC(=O)[C@H](C)[C@@H](OC(=O)N2CCOCC2)[C@H](C)[C@@H](O[C@@H]2O[C@H](C)C[C@H](N(C)C)[C@H]2O)[C@](C)(OC(=O)NC/C=C/c2ccc(-c3ncccn3)cc2)C[C@@H](C)C(=O)[C@H](C)[C@H]2NC(=O)O[C@@]21C [Compound 63],MIC,S. pneumoniae ATCC49619; [1],0.06 µg/mL
same,MIC,E. coli OC2605; [2],> 16 µg/mL
same,MIC,S. aureus ATCC29213; [1],0.5 µg/mL
same,MIC,H. influenzae ATCC49247; [1],4 µg/mL
same,MIC,E. faecalis ATCC29212; [1],0.5 µg/mL
CC[C@H]1OC(=O)[C@H](C)[C@@H](OC(=O)Nc2ccc(F)cc2)[C@H](C)[C@@H](O[C@@H]2O[C@H](C)C[C@H](N(C)C)[C@H]2O)[C@](C)(OC(=O)NC/C=C/c2ccc(-c3ncccn3)cc2)C[C@@H](C)C(=O)[C@H](C)[C@H]2NC(=O)O[C@@]21C [Compound 52],MIC,S. pneumoniae ATCC49619; [1],0.12 µg/mL
same,MIC,E. coli OC2605; [2],> 16 µg/mL
same,MIC,S. aureus ATCC29213; [1],1 µg/mL
same,MIC,H. influenzae ATCC49247; [1],4 µg/mL
same,MIC,E. faecalis ATCC29212; [1],1 µg/mL
CC[C@H]1OC(=O)[C@H](C)[C@@H](OC(=O)N(C)Cc2cccnc2)[C@H](C)[C@@H](O[C@@H]2O[C@H](C)C[C@H](N(C)C)[C@H]2O)[C@](C)(OC(=O)NC/C=C/c2ccc(-c3ncccn3)cc2)C[C@@H](C)C(=O)[C@H](C)[C@H]2NC(=O)O[C@@]21C [Compound 58],MIC,S. pneumoniae ATCC49619; [1],0.03 µg/mL
same,MIC,E. coli OC2605; [2],> 16 µg/mL
same,MIC,S. aureus ATCC29213; [1],0.25 µg/mL
same,MIC,H. influenzae ATCC49247; [1],2 µg/mL
same,MIC,E. faecalis ATCC29212; [1],0.25 µg/mL
CC[C@H]1OC(=O)[C@H](C)[C@@H](OC(=O)/C(=N/OC)c2cccnc2)[C@H](C)[C@@H](O[C@@H]2O[C@H](C)C[C@H](N(C)C)[C@H]2O)[C@](C)(OC(=O)NC/C=C/c2ccc(-c3ncccn3)cc2)C[C@@H](C)C(=O)[C@H](C)[C@H]2NC(=O)O[C@@]21C [Compound 43],MIC,S. pneumoniae ATCC49619; [3],0.12 µg/mL
same,MIC,E. coli OC2605; [4],16 µg/mL
same,MIC,S. aureus ATCC29213; [3],1 µg/mL
same,MIC,H. influenzae ATCC49247; [3],8 µg/mL
same,MIC,E. faecalis ATCC29212; [3],1 µg/mL
"CC[C@H]1OC(=O)[C@H](C)[C@@H](OC(=O)Cc2ccccn2)[C@H](C)[C@@H](O[C@@H]2O[C@H](C)C[C@H](N(C)C)[C@H]2O)[C@](C)(OC(=O)NC/C=C/C=C/c2cccnc2)C[C@@H](C)C(=O)[C@H](C)[C@H]2NC(=O)O[C@@]21C [Compound 25, 2-Pyridineacetic acid, (3aS,4R,7R,8S,9S,10R, 11R,13R,15R,15aR)-4-ethyltetradecahydro-3a,7,9,11,13,15-hexamethyl-2,6,14-trioxo-11-[[[[(2E,4E)-5-(3-pyridinyl)-2,4-pentadienyl]amino]carbonyl]oxy]-10-[[3,4,6-trideoxy-3-(dimethylamino)-β-D-xylo-hexopyranosyl]oxy]-2H-oxacyclotetradecino[4,3-d]oxazol-8-yl ester]",MIC,S. pneumoniae ATCC49619; [3],0.03 µg/mL
same,MIC,E. coli OC2605; [4],8 µg/mL
same,MIC,S. aureus ATCC29213; [3],0.5 µg/mL
same,MIC,H. influenzae ATCC49247; [3],2 µg/mL
same,MIC,E. faecalis ATCC29212; [3],0.25 µg/mL
CC[C@H]1OC(=O)[C@H](C)[C@@H](OC(=O)Cc2cccnc2)[C@H](C)[C@@H](O[C@@H]2O[C@H](C)C[C@H](N(C)C)[C@H]2O)[C@](C)(OC(=O)NC/C=C/c2cccnc2)C[C@@H](C)C(=O)[C@H](C)[C@H]2NC(=O)O[C@@]21C [Compound 19],MIC,S. pneumoniae ATCC49619; [3],0.06 µg/mL
same,MIC,E. coli OC2605; [4],16 µg/mL
same,MIC,S. aureus ATCC29213; [3],1 µg/mL
same,MIC,H. influenzae ATCC49247; [3],1 µg/mL
same,MIC,E. faecalis ATCC29212; [3],0.25 µg/mL
CC[C@H]1OC(=O)[C@H](C)[C@@H](OC(=O)Cc2cn(C)c3ccccc23)[C@H](C)[C@@H](O[C@@H]2O[C@H](C)C[C@H](N(C)C)[C@H]2O)[C@](C)(OC(=O)NC/C=C/c2ccc(-c3ncccn3)cc2)C[C@@H](C)C(=O)[C@H](C)[C@H]2NC(=O)O[C@@]21C [Compound 11],MIC,S. pneumoniae ATCC49619; [3],0.25 µg/mL
same,MIC,E. coli OC2605; [4],> 16 µg/mL
same,MIC,S. aureus ATCC29213; [3],2 µg/mL
same,MIC,H. influenzae ATCC49247; [3],8 µg/mL
same,MIC,E. faecalis ATCC29212; [3],2 µg/mL
CC[C@H]1OC(=O)[C@H](C)[C@@H](OC(=O)N(CC)c2cccnc2)[C@H](C)[C@@H](O[C@@H]2O[C@H](C)C[C@H](N(C)C)[C@H]2O)[C@](C)(OC(=O)NC/C=C/c2ccc(-c3ncccn3)cc2)C[C@@H](C)C(=O)[C@H](C)[C@H]2NC(=O)O[C@@]21C [Compound 65],MIC,S. pneumoniae ATCC49619; [1],0.25 µg/mL
same,MIC,E. coli OC2605; [2],> 16 µg/mL
same,MIC,S. aureus ATCC29213; [1],1 µg/mL
same,MIC,H. influenzae ATCC49247; [1],8 µg/mL
same,MIC,E. faecalis ATCC29212; [1],1 µg/mL
